Source: PubChem BioAssay (NCI)
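48-hour exposure; five concentrations; linearly interpolated endpoints. GI50 is the concentration that inhibits growth by half. TGI: concentration producing complete growth inhibition.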

Experiments:
Assay in all cases: inhibition of tumour cell growth, NCI panel, 48 h
[1] = tested on: A498 renal
[2] = tested on: HOP-92 NSCLC
[3] = tested on: IGROV1 ovarian
[4] = tested on: K-562 leukemia
[5] = tested on: OVCAR-4 ovarian
[6] = tested on: SF-539 CNS
[7] = tested on: SK-MEL-28 melanoma
[8] = tested on: SK-MEL-5 melanoma
[9] = tested on: SN12C renal
[10] = tested on: UO-31 renal

SMILES | TGI [1] [µM] | TGI [2] [µM] | TGI [3] [µM] | TGI [4] [µM] | TGI [5] [µM] | TGI [6] [µM] | TGI [7] [µM] | TGI [8] [µM] | TGI [9] [µM] | TGI [10] [µM] | GI50 [1] [µM] | GI50 [2] [µM] | GI50 [3] [µM] | GI50 [5] [µM] | GI50 [6] [µM] | GI50 [8] [µM] | GI50 [9] [µM] | GI50 [10] [µM] | GI50 [4] [µM] | GI50 [7] [µM]
CCc1ccccc1NC(=O)C(=O)CC(=O)c1sc(Nc2ccccc2)nc1C | > 100 | > 100 | > 100 | > 100 | > 100 | > 100 | > 100 | > 100 | > 100 | > 100 |  |  |  |  |  |  |  |  |  | 
O=c1cc(-c2ccccc2)[nH]c2ccccc12 | 33 | > 100 | > 33.7 | > 100 | > 100 | 9.66 | > 100 | 19.1 | > 100 | > 100 | 0.428 | 0.571 | 2.35 | 0.949 | 0.412 | 0.387 | 1.73 | 3.28 |  | 
COC(=O)[C@H](C[C@H](Cc1ccccc1)NC(=O)c1csc([C@@H](C[C@H](C(C)C)N(C)C(=O)[C@@H](NC(=O)[C@H]2CCCCN2C)C(C)C)OC(C)=O)n1)NC(=O)OCc1ccccc1 | 0.0101 | > 9 | > 4.04 | > 3.46 | > 9 | 0.00367 | 2.5 | 0.0182 | > 9 | > 9 | 0.00112 | 0.00163 | 0.00119 | 0.0124 | < 0.0009 | < 0.0009 | < 0.0009 | 0.0111 | < 0.0009 | 0.0025
CCOC(=O)COc1ccccc1/C=C1\CCC(CN(C)C)C1=O (stereo not given) | 31.3 | 25.8 | 30.4 | 6.51 | 31.8 | 26.6 | 7.21 | 22.4 | 14.1 | 29.9 |  |  |  |  |  |  |  |  |  | 
COc1cc(C2CC(c3ccc4c(c3)OCO4)=NN2C=O)cc(OC)c1OC (stereo not given) |  | > 100 | > 100 | > 100 | > 100 | 13 | > 100 | 8.11 | > 100 | > 100 | 0.828 |  | 2.37 | 6.86 | 2.06 | 2.39 | 13.6 | 3.81 | 0.621 | 6.36
NCCn1c(=O)[nH]c(=O)[nH]c1=S | > 100 | > 100 | > 100 | > 100 | > 100 | > 100 | > 100 | > 100 | > 100 | > 100 | > 100 | > 100 | > 100 | > 100 | > 100 | > 100 | > 100 | > 100 | 54.1 | > 100
CN(C)CCCNC(CC#N)CCC#N (stereo not given) | > 10 | > 10 | > 10 | > 10 | > 10 | > 10 | > 10 | > 10 | > 10 | > 10 |  |  |  |  |  |  |  |  |  | 
O=c1/c(=C/c2ccccc2F)sc2nc3ccccc3n12 | > 100 | > 100 | > 100 | > 100 | > 100 | > 100 | > 100 | > 100 | > 100 | > 100 |  |  |  |  |  |  |  |  |  | 
C=CCOc1cccc(/C=C2\SC(=Nc3ccc(O)cc3)NC2=O)c1 | 3.77 | 6.54 | 22.8 | > 100 | 22.8 | 1.14 | 31.2 | 2.44 | 10.1 | 2.51 | 0.79 | 0.863 | 0.543 | 2.15 | 0.296 | 0.555 | 0.953 | 0.832 | 0.243 | 2.47
CC[C@@H](C(=O)O)C1CC[C@H](C)C([C@@H](C)[C@H](O)[C@H](C)C(=O)[C@H](CC)C2O[C@]3(C=C[C@@H](O)[C@]4(CC[C@@](C)(C5CC[C@](O)(CC)[C@H](C)O5)O4)O3)[C@H](C)C[C@@H]2C)O1 (stereo not given in full) | 0.799 | 4.93 | 64.8 | 15.6 | 33.7 | 3.9 | 1.93 | 0.86 | 28.7 | 15.9 | 0.0458 | 0.317 | 2.28 | 0.657 | 0.309 | 0.18 | 0.128 | 0.784 | 0.306 | 0.549
Cc1ccc(NC(=O)C(=O)C(C#N)c2ccccc2C)cc1C (stereo not given) | > 100 | > 100 | > 100 | > 70.1 | > 100 | > 100 | > 100 | > 100 | > 100 | > 100 |  |  |  |  |  |  |  |  |  | 
CC1=C(Oc2ccccc2)C(CCC(=O)O)c2c(O)cc(Cl)c(O)c21 (stereo not given) | > 100 | > 100 | > 100 | > 100 | > 100 | > 100 | > 100 | > 100 | > 100 | > 100 |  |  |  |  |  |  |  |  |  | 
CCOc1ccc(NC(=O)C(=O)CC(=O)C2=C(C)Nc3ccccc3S2)cc1 | > 50 | > 50 | > 50 | > 50 | > 50 | > 50 | > 50 | > 50 | > 50 | > 50 |  |  |  |  |  |  |  |  |  | 
Cc1ccc(-c2cn3ccnc3c(-c3ccc(Cl)cc3)n2)cc1 | 8.11 | > 93.2 | > 83 | > 100 | > 100 | 1.35 | 44 | 11.4 | 62.5 | > 100 | 0.389 | 12.5 | 1.55 | 14.7 | 0.0422 | 0.0627 | 0.532 |  | 0.0352 | 0.518
Cc1c(C(=O)C/C(=N\O)C(=O)Nc2cc(Cl)c(Cl)cc2Cl)[n+](=O)c2ccccc2n1[O-] | 56.2 | 46.2 | 20.9 | > 100 | 39.4 | 32.7 | 52.1 | 20.9 | 18.9 | 78.2 |  |  |  |  |  |  |  |  |  | 
Cc1[nH]ccc2c1[nH]c1cc(=O)ccc12 | > 100 | > 100 | > 100 | > 100 | > 100 | > 100 | > 100 | > 100 | > 100 | > 100 |  |  |  |  |  |  |  |  |  | 
